Here are results for 31 molecules from publication PMC6253875, “Synthesis and Evaluation of Non-peptidic Cysteine Protease Inhibitors of P. falciparum Derived from Etacrynic Acid” (Molecules, 2008).

Where two headings read alike, the source gives them in different places.

One assay relates to P. falciparum strain W2. The assay is described as follows: Antiplasmodial activity in vitro, parasite development quantified by flow cytometry. It counts as cell-based, Plasmodium falciparum. The note with it: W2 strain (CQ-resistant), ni = no inhibition; for IC50: read-out: P. f. 3D7/W2, IC50. The protocol: (§1) IC50 values for inhibition of falcipain-2 and falcipain-3 were determined as described previously using the fluorogenic substrates Cbz-Phe-Arg-AMC and Cbz-Leu-Arg-AMC, respectively (AMC, 7-amino-4 methylcoumarin). As a positive control the well-known cysteine protease inhibitor E-64 [7, 25, 26] and as a negative control the solvent (DMSO) was used. Dose-dependent effects of compounds on parasite development (P. falciparum strain W2) were quantified by flow cytometry according to a previously published method. First, a screening with inhibitor concentrations of […] was performed and the percentage activity of infected red blood cells (RBCs) relative to the negative control was determined. […] Chloroquine and E-64 were used as positive controls, and the solvent DMSO was used as a negative control. For selected compounds assays with the P. falciparum strain 3D7 were performed using a fluorometric assay with Hoechst-33258 [28], or the microculture tetrazolium test measuring parasite lactate dehydrogenase activity. The parasites were cultivated in vitro as described previously. Compounds were screened at concentrations between 1 nM and 100 μM. Synchronized ring stages were plated in 96-well plates at a parasitemia of 1%, in the presence of the compounds (dissolved in DMSO). Incubation of parasites with DMSO alone at a concentration of 0.5% v/v was used as a negative control. IC50 values were calculated by non-linear regression analyses using the programs GaphPad® Prism 4 and GraFit® [31, 32].
Background: In flow cytometry, cells or beads pass a laser one at a time.

A further assay concerns the target T1, falcipain-3 (Plasmodium falciparum, UniProt Q8IIL0).
T1 construct: made in house; host or cells: E. coli
T1 sequence (Q8IIL0 243-492): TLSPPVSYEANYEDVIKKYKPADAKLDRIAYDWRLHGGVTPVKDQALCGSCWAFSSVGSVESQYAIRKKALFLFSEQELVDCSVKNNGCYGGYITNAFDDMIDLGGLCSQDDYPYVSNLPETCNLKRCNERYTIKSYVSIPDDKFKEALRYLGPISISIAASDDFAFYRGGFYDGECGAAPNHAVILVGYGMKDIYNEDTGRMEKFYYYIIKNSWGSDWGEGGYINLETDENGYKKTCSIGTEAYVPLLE
The assay is described as follows: Inhibition of recombinant falcipain-3, fluorometric microplate assay (Cbz-Leu-Arg-AMC). Format: biochemical. The protocol:
(§2) Recombinant falcipain-2 and falcipain-3 were produced as previously described. Inhibitory activities against recombinant falcipain-2 and falcipain-3 were evaluated in fluorometric microplate assays using the substrates Cbz-Phe-Arg-AMC and Cbz-Leu-Arg-AMC (AMC, 7-amino-4-methyl-coumarin). The cysteine protease inhibitor E-64 was used as a positive control. The solvent DMSO was used as negative control. […] The in vitro data for the etacrynic acid derivatives are compared to those of the well known drug chloroquine and to E-64.
(§3) Falcipain-2 and falcipain-3 were recombinantly expressed in E. coli and refolded to active enzyme as previously described.
as §1

The next assay has as its target T2, falcipain-2 (Plasmodium falciparum, UniProt Q8I6U4).
T2 construct: made in house; host or cells: E. coli
T2 sequence (Q8I6U4 244-484): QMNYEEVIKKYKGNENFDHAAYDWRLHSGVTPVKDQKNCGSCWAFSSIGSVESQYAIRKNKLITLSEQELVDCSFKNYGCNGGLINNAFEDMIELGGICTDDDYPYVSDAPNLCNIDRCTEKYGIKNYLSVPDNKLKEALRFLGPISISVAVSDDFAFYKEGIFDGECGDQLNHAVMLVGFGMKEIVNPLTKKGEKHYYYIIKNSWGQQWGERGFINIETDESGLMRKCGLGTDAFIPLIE
The assay is described as follows: Inhibition of recombinant falcipain-2, fluorometric microplate assay (Cbz-Phe-Arg-AMC). Format: biochemical. The protocol: as §2, §3, §1

A further assay relates to P. falciparum strain 3D7. The assay is described as follows: Antiplasmodial activity in vitro, Hoechst-33258 fluorometric assay or parasite lactate dehydrogenase test. Format: cell-based. The settings on record: Plasmodium falciparum; 3D7 strain (CQ-sensitive); read-out: P. f. 3D7/W2, IC50. The protocol:
as §2, §1

[1] abbreviates: recombinant falcipain-3, ni = no inhibition, read-out: FP-3 IC50.
Where [2] appears, read: recombinant falcipain-2, values marked ^a: only one experiment, ni = no inhibition, read-out: FP-2 IC50.
[3] abbreviates: recombinant falcipain-2, values marked ^a: only one experiment, ni = no inhibition.
[4] abbreviates: recombinant falcipain-3, ni = no inhibition.
Where [5] appears, read: Plasmodium falciparum, 3D7 / W2.

`C=C(CC)C(=O)c1ccc(OCC(=O)OCC)c(Cl)c1` [Compound 1]: in the assay with P. falciparum strain W2, the “P. f. 3D7/W2, IC50” value was “ni^c”. Besides, the IC50 on falcipain-3 (setting [1]) came to 346 ± 14 µM; at falcipain-2 (setting [2]), 498 ± 8 µM.
On the same counts, the results for `C=C(CC)C(=O)c1ccc(Cl)cc1OCC(=O)OCC` [Compound 2] are “ni^c”, 381 ± 21 µM and 110 ± 5 µM.
With `C=C(CC)C(=O)c1ccc(OCC(=O)OC(C)(C)C)c(F)c1` [Compound 3, Tert-butyl 2-(2-fluoro-4-(2-methylenebutanoyl)phenoxy)acetate], the IC50 with P. falciparum strain 3D7 is 142 ± 5 µM. The “FP-2 IC50” value on falcipain-2 (setting [3]) is “ni”.
Turning to `C=C(CC)C(=O)c1ccc(OCC(=O)O)c(F)c1` [Compound 4, 2-(2-fluoro-4-(2-methylenebutanoyl)phenoxy)acetic acid], the IC50 in the assay on P. falciparum strain 3D7 is 79.8 ± 6 µM.
`C=C(CC)C(=O)c1ccc(OCC(=O)NC(C)(C)C)c(F)c1` [Compound 5, N-tert-butyl-2-(2-fluoro-4-(2-methylenebutanoyl)phenoxy)acetamide]: the IC50 worked out at 205 ± 9 µM with P. falciparum strain 3D7 and 80 ± 5 µM at falcipain-2 (setting [2]).
Take `C=C(CC)C(=O)c1ccc(OCC(=O)NC(C(=O)OC)C(C)CC)c(F)c1` (stereo not shown) [Compound 7, Methyl-2-(2-(2-fluoro-4-(2-methylenebutanoyl)phenoxy)acetamido)-3-methylpentanoate]: the “FP-2 IC50” value on falcipain-2 (setting [3]) is reported as “ni”.
Consider `C=C(CC)C(=O)c1ccc(OCC(=O)O)c(Cl)c1Cl` [Compound 8, etacrynic acid], for which the “P. f. 3D7/W2, IC50” value with P. falciparum strain W2 is “ni^c”. Also, the “FP-3 IC50” value on falcipain-3 (setting [4]) is on record as “ni”. Further, at falcipain-2 (setting [2]), the IC50 was determined as 443 ± 17 µM.
In the case of `C=C(CC)C(=O)c1ccc(OCC(=O)OCC)c(Cl)c1Cl` [Compound 9], in the assay with P. falciparum strain W2, the “P. f. 3D7/W2, IC50” value is reported as “ni^c”. In addition, the IC50 on falcipain-3 (setting [1]) was 163 ± 5.6 µM; on falcipain-2 (setting [2]), 60.6 ± 4.2 µM.
With `C=C(CC)C(=O)c1ccc(OCC(=O)N[C@@H](C)C(=O)OCc2ccccc2)c(Cl)c1Cl` [Compound 10], in the assay with P. falciparum strain W2, the “P. f. 3D7/W2, IC50” value is listed as “ni^c”. The IC50 on falcipain-3 (setting [1]) amounted to 56.7 ± 5.7 µM; at falcipain-2 (setting [2]), 178 ± 14 µM.
For `C=C(CC)C(=O)c1ccc(OCC(=O)NCc2ccccc2)c(Cl)c1Cl` [Compound 11] the same measures were “ni^c”, 158 ± 11 µM and 333 ± 5 µM.
As for `C=C(CC)C(=O)c1ccc(OCC(=O)N[C@H](C)C(=O)OCc2ccccc2)c(Cl)c1Cl` [Compound 12], at falcipain-2 (setting [2]), the IC50 is 165 ± 12 µM.
In the case of `C=C(CC)C(=O)c1ccc(OCC(=O)Nc2ccccc2)c(Cl)c1Cl` [Compound 13], the “P. f. 3D7/W2, IC50” value with P. falciparum strain W2 was “nic”. Also, the IC50 at falcipain-3 (setting [1]) worked out at 87.2 ± 6 µM; at falcipain-2 (setting [2]), 269 ± 21 µM.
As for `C=C(CC)C(=O)c1ccc(OCC(=O)NC(C)(C)C(N)=O)c(Cl)c1Cl` [Compound 14], the IC50 with P. falciparum strain W2 (setting [5]) was 29.3 ± 3.4 µM; at falcipain-2 (setting [2]), 318 ± 14 µM. In addition, the “FP-3 IC50” value on falcipain-3 (setting [4]) is given as “ni”.
As for `C=C(CC)C(=O)c1ccc(OCC(=O)NCC(=O)N[C@@H](C)C(N)=O)c(Cl)c1Cl` [Compound 15], in the assay on P. falciparum strain W2, the “P. f. 3D7/W2, IC50” value is on record as “nic”. Further, the “FP-3 IC50” value on falcipain-3 (setting [4]) is on record as “ni”. Further, the IC50 on falcipain-2 (setting [2]) worked out at 212 ± 17 µM.
Turning to `C=C(CC)C(=O)c1ccc(OCC(=O)NCC(=O)N[C@@H](Cc2ccccc2)C(N)=O)c(Cl)c1Cl` [Compound 16], the “P. f. 3D7/W2, IC50” value with P. falciparum strain W2 is “nic”. Moreover, the “FP-3 IC50” value on falcipain-3 (setting [4]) is listed as “ni”. In addition, the IC50 at falcipain-2 (setting [2]) was 242 ± 19 µM.
Turning to `C=C(CC)C(=O)c1ccc(OCC(=O)N2CCOCC2)c(Cl)c1Cl` [Compound 17], in the assay on P. falciparum strain W2, the “P. f. 3D7/W2, IC50” value is given as “nic”. The IC50 came to 479 ± 23 µM at falcipain-3 (setting [1]) and 305 ± 30 µM on falcipain-2 (setting [2]).
On the same counts, the results for `C=C(CC)C(=O)c1ccc(OCC(=O)NC(C)(C)C)c(Cl)c1Cl` [Compound 18] are “nic”, 153 ± 16 µM and 255 ± 4 µM.
For the molecule `C=C(CC)C(=O)c1ccc(OCC(=O)N2CCN(CC)CC2)c(Cl)c1Cl` [Compound 19], the values for the IC50 in the assay with P. falciparum strain W2 (setting [5]), on falcipain-3 and at falcipain-2 were 27.4 ± 4.1 µM, 557 ± 23 µM and 144 ± 11 µM, respectively.
In the case of `C=C(CC)C(=O)c1ccc(OCC(=O)NCCCC)c(Cl)c1Cl` [Compound 20], the “P. f. 3D7/W2, IC50” value with P. falciparum strain W2 is “nic”. The IC50 at falcipain-3 (setting [1]) was 158 ± 17 µM; at falcipain-2 (setting [2]), 184 ± 17 µM.
In the case of `C=C(CC)C(=O)c1ccc(OCC(=O)NCCCCCC)c(Cl)c1Cl` [Compound 21], the “P. f. 3D7/W2, IC50” value in the assay on P. falciparum strain W2 is recorded as “nic”. Further, the IC50 on falcipain-3 (setting [1]) stood at 123 ± 8 µM; at falcipain-2 (setting [2]), 182 ± 9 µM.
Consider `C=C(CC)C(=O)c1ccc(OCC(=O)NC(CCC(=O)O)C(=O)O)c(Cl)c1Cl` (stereo not shown) [Compound 22, 2-{2-[2,3-Dichloro-4-(2-methylene-butyryl)-phenoxy]acetylamino}pentanedioic acid], for which the “P. f. 3D7/W2, IC50” value with P. falciparum strain W2 was “nic”. Also, the “FP-3 IC50” value on falcipain-3 (setting [4]) is “ni”. Besides, the “FP-2 IC50” value at falcipain-2 (setting [3]) is on record as “ni”.
Regarding `C=C(CC)C(=O)c1ccc(OCC(=O)NCCCCCCNC(=O)CCCCC2SCC3NC(=O)NC32)c(Cl)c1Cl` (stereo not shown) [Compound 24, 5-(2-Oxo-hexahydro-thieno[3,4-d]imidazol-4-yl)pentanoic acid (6-{2-[2,3-dichloro-4-(2-methylene-butyryl)-phenoxy]acetylamino}-hexyl)-amide], the figures for the IC50 in the assay on P. falciparum strain W2 (setting [5]), on falcipain-3 (setting [1]) and on falcipain-2 (setting [2]) were 9 ± 0.4 µM, 11.9 ± 1.1 µM and 3 ± 1.1 µM, respectively.
As to `CCC(C)C(=O)c1ccc(OCC(=O)O)c(Cl)c1Cl` (stereo not shown) [Compound 25], the “P. f. 3D7/W2, IC50” value in the assay on P. falciparum strain W2 is listed as “ni^c”. The “FP-3 IC50” value at falcipain-3 (setting [4]) is “ni”. On falcipain-2 (setting [2]), the IC50 was determined as 531 µM.
On the same counts, the results for `CCCC(=O)c1ccc(OCC(=O)NC(C)(C)C)c(Cl)c1Cl` [Compound 26, N-tert-butyl-2-(4-butyryl-2,3-dichloro-phenoxy)-acetamide] are “ni^c”, “ni” and 484 µM.
Consider `CCCCNC(=O)COc1ccc(C(=O)CCC)c(Cl)c1Cl` [Compound 27, N-butyl-2-(4-butyryl-2,3-dichloro-phenoxy)-acetamide], for which, in the assay on P. falciparum strain W2, the “P. f. 3D7/W2, IC50” value is given as “ni^c”. Further, at falcipain-3 (setting [4]), the “FP-3 IC50” value is “ni”. Further, the IC50 on falcipain-2 (setting [2]) was 713 µM.
`CCCC(=O)c1ccc(OCC(=O)NC(C)(C)C)c(F)c1` [Compound 28, N-tert-butyl-2-(4-butyryl-2-fluorophenoxy)acetamide]: the IC50 was 66.4 ± 2.2 µM in the assay on P. falciparum strain W2 (setting [5]) and 80 ± 6 µM at falcipain-2 (setting [2]).
Consider `CCCC(=O)c1ccc(OCC(=O)OC(C)(C)C)c(F)c1` [Compound 29, Tert-butyl-2-(4-butyryl-2-fluorophenoxy)acetate], for which the IC50 on falcipain-2 (setting [2]) was found to be 80 ± 6 µM.
On to `CCCCNC(=O)COc1ccc(C(=O)CCC)cc1F` [Compound 30, N-butyl-2-(4-butyryl-2-fluorophenoxy)acetamide], for which, at falcipain-2 (setting [3]), the “FP-2 IC50” value is “ni”.
Same read-out and setting: under `CCCC(=O)c1ccc(OCC(=O)NC(C)(C)CO)c(F)c1` [Compound 31, 2-(4-Butyryl-2-fluorophenoxy)-N-(1-hydroxy-2-methylpropan-2-yl)acetamide] stands “ni”; under `CCCC(=O)c1ccc(OCC(=O)NC(C(=O)OC)C(C)CC)c(F)c1` (stereo not shown) [Compound 32, Methyl 2-(2-(4-butyryl-2-fluorophenoxy)acetamido)-3-methylpentanoate], “ni”.
As to `CC(C)C[C@H](NC(=O)[C@H]1O[C@@H]1C(=O)O)C(=O)NCCCCN=C(N)N` [E-64, reference compound], the IC50 with P. falciparum strain W2 was 5.3 ± 1.05 µM; at falcipain-3 (setting [1]) it was 0.075 ± 0.02 µM; on falcipain-2 (setting [2]), 0.015 ± 0.008 µM.
